This passage reports IC50 results from ChEMBL document CHEMBL1146663, “Anti-inflammatory flavonoids and pterocarpanoid from Crotalaria pallida and C. assamica” (Bioorg Med Chem Lett, 2004).

For experiment [1], the species on record is Mus musculus. Put plainly: Inhibitory effect of compound on the accumulation of NO2 in the culture media of N9 cells in response to LPS/IFN-gamma. Type of experiment: functional, cell-based.
For experiment [2], the species on record is Mus musculus. Put plainly: Inhibitory effect of compound on the accumulation of NO2 in the culture media of RAW 264.7 cells in response to LPS. Type of experiment: functional, cell-based.
The species named for experiment [3] is Rattus norvegicus. Put plainly: Inhibitory effect of compound on superoxide anion generation in rat neutrophils stimulated with PMA. Type of experiment: functional.
Experiment [4] is filed under the species Rattus norvegicus. The experiment can be described thus: Inhibitory effect of compound on superoxide anion generation in rat neutrophils stimulated with fMLP/CB. In kind it is functional.
The species entered for experiment [5] is Mus musculus. Put plainly: Inhibitory effect of compound on the accumulation of NO2 in the culture media of RAW 264.7 cells in response to LPS; potent effect. Type of experiment: functional.
Experiment [6] is filed under the species Mus musculus. The experiment can be described thus: Inhibitory effect of compound on the accumulation of NO2 in the culture media of N9 cells in response to LPS/IFN-gamma; potent effect. Type of experiment: functional.

The structures appear in SMILES notation. Where only a bound is given, the exact number is not on record here.

On to `CC(=N)NCc1cccc(CN)c1` [1400W], for which the half-maximal inhibitory concentration (IC50) (in general, the concentration at which inhibition is half-maximal) amounted to 2.2 µM in the experiment filed under Mus musculus [1] and 6.1 µM in the experiment filed under Mus musculus [2].

Take `O=c1cc(-c2ccc(O)cc2)oc2cc(O)ccc12`: the IC50 in the experiment filed under Rattus norvegicus [3], in the experiment listed under Rattus norvegicus [4], in the experiment listed under Mus musculus [1] and in the experiment filed under Mus musculus [2] was over 30 µM in each case.

For `O=c1c(O)c(-c2ccc(O)cc2)oc2cc(OC3O[C@H](CO)[C@@H](O)[C@H](O)[C@H]3O)cc(O)c12` (stereo partly specified), the IC50 in the experiment filed under Rattus norvegicus [3], in the experiment listed under Rattus norvegicus [4], in the experiment filed under Mus musculus [1] and in the experiment filed under Mus musculus [2] was over 30 µM each time.

For `C[C@](O)(CO)c1cc2c3c(ccc2o1)[C@@H]1COc2cc(O)ccc2[C@@H]1O3`, the IC50 is over 30 µM in the experiment listed under Rattus norvegicus [3], over 30 µM in the experiment filed under Rattus norvegicus [4], 13.9 µM in the experiment listed under Mus musculus [1] and over 30 µM in the experiment filed under Mus musculus [2].

On to `COc1cc(O)ccc1-c1coc2cc(O)cc(O)c2c1=O` [THERALIN], for which the 50% inhibitory concentration (IC50) in the experiment listed under Rattus norvegicus [3], in the experiment listed under Rattus norvegicus [4], in the experiment filed under Mus musculus [1] and in the experiment filed under Mus musculus [2] was over 30 µM throughout.

Take `O=c1c(-c2ccc(O)cc2O)coc2cc(O)cc(O)c12`: the IC50 in the experiment filed under Rattus norvegicus [3], in the experiment filed under Rattus norvegicus [4], in the experiment listed under Mus musculus [1] and in the experiment listed under Mus musculus [2] was over 30 µM each time.

Consider `CN1CCN(CCCN2c3ccccc3Sc3ccc(C(F)(F)F)cc32)CC1` [TRIFLUOPERAZINE], for which the IC50 worked out at 2.7 µM in the experiment listed under Rattus norvegicus [3] and 6.6 µM in the experiment listed under Rattus norvegicus [4].

As for `C=C(C)c1cc2c3c(ccc2o1)[C@@H]1COc2cc(O)ccc2[C@@H]1O3` [CROTAFURAN A], the IC50 entry in the experiment filed under Mus musculus [5] and in the experiment listed under Mus musculus [6] was “potent effect” throughout.

As for `O=c1c(-c2ccc(O)cc2O)coc2cc(O)ccc12`, the 50% inhibitory concentration (IC50) in the experiment filed under Rattus norvegicus [3] was over 30 µM; in the experiment filed under Rattus norvegicus [4], 25.1 µM; in the experiment listed under Mus musculus [1], over 30 µM; in the experiment listed under Mus musculus [2], over 30 µM.

In the case of `CC(=O)c1cc2c3c(ccc2o1)[C@@H]1COc2cc(O)ccc2[C@@H]1O3` [CROTAFURAN B], the half-inhibitory concentration (IC50) entry in the experiment filed under Mus musculus [5] and in the experiment listed under Mus musculus [6] was “potent effect” each time.

On to `O=c1cc(-c2ccc(O)cc2)oc2cc(O)cc(O)c12` [APIGENIN], for which the half-inhibitory concentration (IC50) in the experiment filed under Rattus norvegicus [3] is over 30 µM; in the experiment listed under Rattus norvegicus [4], 3.4 µM; in the experiment listed under Mus musculus [1] it was over 30 µM; in the experiment filed under Mus musculus [2] it was 10.7 µM.
